Data: patent US20180038871A1, “DIAGNOSTIC BIOMARKER TO IDENTIFY WOMEN AT RISK FOR PRETERM DELIVERY” (CEDARS-SINAI MEDICAL CENTER, priority 2009, published 2018)
“Also recorded” adds a separate entry of the source.

System: Peripheral blood mononuclear cells (PBMC)
Experiment: LPS-induced cytokine expression profile in PBMC with or without cortisol pretreatment (Bioplex)
Assay type: cell-based, human
Set-up: key to Cortisol Effect on IFN-g secretion level / LPS Effect on IFN-g secretion level / Cortisol Effect on TNF-a secretion level / Cortisol Effect on GM-CSF secretion level / LPS Effect on GM-CSF secretion level / Cortisol Effect on IL-2 secretion level / LPS Effect on IL-2 secretion level / Cortisol Effect on IL-4 secretion level / Cortisol Effect on IL-10 secretion level: n/c = No Change
Experimental: Peripheral blood mononuclear cells (PBMC) from non-pregnant (at least 5-6 years post-partum) women with history of preterm or full term delivery, in addition to the microbial component lipopolysaccharide (LPS)-induced cytokine expression profile were examined. PBMC were separated from whole blood using Ficoll gradient. The cells were counted and equal numbers of cells were plated in 24 well plates. PBMC were treated with cortisol (50 or 300 ug/ml) or media for 1 hour prior to stimulation with LPS (0, 1, or 100 ug/ml) for 24 hours.
The PBMC were lysed and the supernatant was examined for inflammatory and anti-inflammatory cytokine expression by using Bioplex technology (Bio-rad).
In this study two patients were preterm and four were full term. There were 9 samples per patient (3×3 design) and all samples from each patient were analyzed twice for cytokine concentrations with the exception of one full term subject who only had one analysis of each sample. As a result there are a total of 99 observations for each cytokine measured. The assay simultaneously measured concentrations of 11 inflammatory markers: IL-1ra (IL1-receptor antagonist), IL-2, IL-4, IL-5, IL-8, IL-10, IL-12, IL-13, GM-CSF, IFN-g, and TNF-a.
All raw data was tested via the Kolmogorov-Smirnov test to determine if the data followed a normal distribution. Log-transformations were performed for all data found to have a non-normal distribution prior to further statistical analysis. For each cytokine, a mixed effects model was used to examine all data for significant effects with the outcome variable as the cytokine concentration; the fixed predictor variables as LPS concentration, cortisol concentration, and delivery status (pre- or full-term); and the random effect due to the replicate data points. To test the interaction of the three fixed predictor variables on cytokine concentration, both first and second level interactions ware added to each cytokine model. Post-hoc testing was performed using a Student's t-test.
Using the same mixed model regression, estimated group means and standard errors were calculated. Differences between preterm and full-term pregnancies were considered significant where p <0.10.

[1] = 0 or 1 ug/ml LPS 24 hours, 0 or 300 ug/ml cortisol pretreatment, mixed modeling
[2] = 0 or 300 ug/ml cortisol pretreatment 1 hour, 0 or 1 ug/ml LPS 24 hours, mixed modeling
[3] = 0 or 300 ug/ml cortisol pretreatment 1 hour, 0 or 1 ug/ml LPS 24 hours, mixed modeling, listed as cortisol
[4] = all 99 observations, 300 ug/ml vs 50 ug/ml cortisol

Compound: lipopolysaccharide [LPS]
- LPS Effect on GM-CSF secretion level [1]: n/c, p = .19
- LPS Effect on IFN-g secretion level [1]: n/c, p = .17
- LPS Effect on IL-1ra secretion level [1]: increased secretion; also recorded: increase, p = .09
- LPS Effect on IL-2 secretion level [1]: n/c, p = .50
- LPS Effect on IL-4 secretion level [1]: increased secretion; also recorded: increase, p = .07
- LPS Effect on IL-10 secretion level [1]: increased secretion; also recorded: increase, p = .01
- LPS Effect on IL-13 secretion level [1]: increased secretion; also recorded: increase, p = .04
- LPS Effect on TNF-a secretion level [1]: increased secretion; also recorded: increase, p = .04
- Difference between the effects of 1 ug/ml and 100 ug/ml LPS, all cytokines measured (all 99 observations, 1 ug/ml vs 100 ug/ml LPS): no significant difference

Compound: C[C@]12CCC(=O)C=C1CC[C@@H]1[C@@H]2[C@@H](O)C[C@@]2(C)[C@H]1CC[C@]2(O)C(=O)CO [Cortisol, cortisol]
- Cortisol Effect on GM-CSF secretion level [2]: n/c, p = .51
- Cortisol Effect on IFN-g secretion level [2]: n/c, p = .10
- Cortisol Effect on IL-1ra secretion level [2]: decrease, p = .03
- Cortisol Effect on IL-2 secretion level [2]: n/c, p = .80
- Cortisol Effect on IL-4 secretion level [2]: n/c, p = .26
- Cortisol Effect on IL-10 secretion level [2]: n/c, p = .12
- Cortisol Effect on IL-13 secretion level [2]: decrease, p = .01
- Cortisol Effect on TNF-a secretion level [2]: n/c, p = .41
- Cortisol Effect on IL-1ra secretion level [3]: suppress secretion
- Cortisol Effect on IL-13 secretion level [3]: suppress secretion
- Suppression of IL-1ra level, 300 ug/ml cortisol compared with 50 ug/ml [4]: more significant effect to suppress cytokine levels
- Suppression of IL-10 level, 300 ug/ml cortisol compared with 50 ug/ml [4]: more significant effect to suppress cytokine levels
- Suppression of IL-13 level, 300 ug/ml cortisol compared with 50 ug/ml [4]: more significant effect to suppress cytokine levels
